# Data as given in PubChem BioAssay AID252 (DTP/NCI, 2004).
# Several values for one entry are separate records, joined by “and”; a condition that tells them apart may be missing. Identical values can stand only once. Toxic doses and inconclusive results are not listed.
# Tested on: BDF1 mice, intracerebral L1210 leukemia, survival T/C
# Assay: NCI In Vivo Anticancer Drug Screen. Data for tumor model L1210 Leukemia (intracerebral) in B6D2F1 (BDF1) mice
# Settings: endpoint: mean survival time, higher = longer survival
# Procedure, shortened: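 Tumour was transplanted, animals received compound or vehicle, then survival in each group was measured and treated divided by control.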
# [1] = dose: 1.0 mg/kg/injection, schedule: Q01DX009 (ip), vehicle: saline
# [2] = dose: 2.0 mg/kg/injection, schedule: Q01DX009 (ip), vehicle: saline
# [3] = dose: 18.0 mg/kg/injection, schedule: Q01DX001 (ip), vehicle: carboxymethylcellulose (CMC)
# [4] = dose: 150.0 mg/kg/injection, schedule: Q01DX001 (ip), vehicle: carboxymethylcellulose (CMC)
compound,measurement,setting,value
CS(=O)(=O)Nc1ccc(Nc2c3ccccc3nc3cc([N+](=O)[O-])ccc23)cc1,T/C,"dose: 1.25 mg/kg/injection, schedule: Q01DX009 (ip), vehicle: Klucel (hydroxypropylcellulose) (HPC)",91 % of control
same,T/C,"dose: 1.25 mg/kg/injection, schedule: Q01DX009 (sc), vehicle: Klucel (hydroxypropylcellulose) (HPC)",106 % of control
same,T/C,"dose: 2.5 mg/kg/injection, schedule: Q01DX009 (ip), vehicle: Klucel (hydroxypropylcellulose) (HPC)",87 % of control
same,T/C,"dose: 2.5 mg/kg/injection, schedule: Q01DX009 (sc), vehicle: Klucel (hydroxypropylcellulose) (HPC)",97 % of control
same,T/C,"dose: 3.12 mg/kg/injection, schedule: Q01DX001 (ip), vehicle: saline",98 % of control
same,T/C,"dose: 5.0 mg/kg/injection, schedule: Q01DX009 (ip), vehicle: Klucel (hydroxypropylcellulose) (HPC)",89 % of control
same,T/C,"dose: 5.0 mg/kg/injection, schedule: Q01DX009 (sc), vehicle: Klucel (hydroxypropylcellulose) (HPC)",103 % of control
same,T/C,"dose: 6.25 mg/kg/injection, schedule: Q01DX001 (ip), vehicle: saline",98 % of control
same,T/C,"dose: 10.0 mg/kg/injection, schedule: Q01DX009 (sc), vehicle: Klucel (hydroxypropylcellulose) (HPC)",102 % of control
same,T/C,"dose: 12.5 mg/kg/injection, schedule: Q01DX001 (ip), vehicle: saline",101 % of control
same,T/C,"dose: 25.0 mg/kg/injection, schedule: Q01DX001 (ip), vehicle: saline",101 % of control
same,T/C,"dose: 50.0 mg/kg/injection, schedule: Q01DX001 (ip), vehicle: saline",90 % of control
CCOC(=O)C(CC(C)C)NC(=O)C(Cc1ccc(N(CCCl)CCCl)cc1)NC(C)=O (configuration not stated),T/C,"dose: 2.0 mg/kg/injection, schedule: Q01DX009 (ip), vehicle: DMSO",90 % of control
same,T/C,"dose: 4.0 mg/kg/injection, schedule: Q01DX009 (ip), vehicle: DMSO",92 % of control
N[C@@H](Cc1ccc(N(CCCl)CCCl)cc1)C(=O)O,T/C,[1],111 % of control
same,T/C,"dose: 1.0 mg/kg/injection, schedule: Q01DX Z (ip), vehicle: carboxymethylcellulose (CMC)",98 % of control
same,T/C,"dose: 1.13 mg/kg/injection, schedule: Q01DX001 (ip), vehicle: carboxymethylcellulose (CMC)",104 % of control and 97 % of control
same,T/C,[2],114 % of control
same,T/C,"dose: 2.0 mg/kg/injection, schedule: Q01DX Z (ip), vehicle: carboxymethylcellulose (CMC)",111 % of control
same,T/C,"dose: 2.25 mg/kg/injection, schedule: Q01DX001 (ip), vehicle: carboxymethylcellulose (CMC)",103 % of control and 104 % of control
same,T/C,"dose: 3.0 mg/kg/injection, schedule: Q01DX001 (ip), vehicle: carboxymethylcellulose (CMC)",103 % of control and 108 % of control
same,T/C,"dose: 4.5 mg/kg/injection, schedule: Q01DX001 (ip), vehicle: carboxymethylcellulose (CMC)",104 % of control and 110 % of control
same,T/C,"dose: 8.0 mg/kg/injection, schedule: Q01DX Z (ip), vehicle: carboxymethylcellulose (CMC)",102 % of control
same,T/C,"dose: 9.0 mg/kg/injection, schedule: Q01DX001 (ip), vehicle: carboxymethylcellulose (CMC)",119 % of control and 120 % of control
same,T/C,"dose: 12.5 mg/kg/injection, schedule: Q01DX Z (ip), vehicle: carboxymethylcellulose (CMC)",111 % of control and 88 % of control
same,T/C,"dose: 14.0 mg/kg/injection, schedule: Q01DX001 (ip), vehicle: carboxymethylcellulose (CMC)",155 % of control
same,T/C,[3],122 % of control
same,T/C,"dose: 25.0 mg/kg/injection, schedule: Q01DX Z (ip), vehicle: carboxymethylcellulose (CMC)",88 % of control
same,T/C,"dose: 29.0 mg/kg/injection, schedule: Q01DX001 (ip), vehicle: carboxymethylcellulose (CMC)",115 % of control
O=NN(CCBr)C(=O)NCCBr,T/C,"dose: 133.0 mg/kg/injection, schedule: Q01DX001 (ip), vehicle: carboxymethylcellulose (CMC)",112 % of control
O=NN(CCCl)C(=O)N[C@@H]1CCCC[C@H]1NC(=O)N(CCCl)N=O,T/C,"dose: 67.0 mg/kg/injection, schedule: Q01DX001 (ip), vehicle: carboxymethylcellulose (CMC)",118 % of control
same,T/C,"dose: 72.0 mg/kg/injection, schedule: Q01DX001 (ip), vehicle: carboxymethylcellulose (CMC)",124 % of control
same,T/C,"dose: 100.0 mg/kg/injection, schedule: Q01DX001 (ip), vehicle: carboxymethylcellulose (CMC)",124 % of control
same,T/C,[4],162 % of control
same,T/C,"dose: 240.0 mg/kg/injection, schedule: Q01DX001 (ip), vehicle: carboxymethylcellulose (CMC)",166 % of control
COCCOCCN1CCN(CCCN2c3ccccc3Sc3ccc(C(F)(F)F)cc32)CC1,T/C,"dose: 25.0 mg/kg/injection, schedule: Q04DX003 (ip), vehicle: saline",100 % of control
same,T/C,"dose: 35.0 mg/kg/injection, schedule: Q04DX003 (ip), vehicle: saline",108 % of control
same,T/C,"dose: 50.0 mg/kg/injection, schedule: Q04DX003 (ip), vehicle: saline",93 % of control
CCCOC1=C(N2CC2)C(=O)C(OCCC)=C(N2CC2)C1=O,T/C,"dose: 0.25 mg/kg/injection, schedule: Q01DX009 (ip), vehicle: saline",105 % of control
same,T/C,"dose: 0.5 mg/kg/injection, schedule: Q01DX005 (ip), vehicle: saline",97 % of control
same,T/C,"dose: 0.5 mg/kg/injection, schedule: Q01DX009 (ip), vehicle: saline",113 % of control
same,T/C,"dose: 1.0 mg/kg/injection, schedule: Q01DX005 (ip), vehicle: saline",101 % of control
same,T/C,[1],104 % of control and 302 % of control
same,T/C,"dose: 2.0 mg/kg/injection, schedule: Q01DX005 (ip), vehicle: saline",108 % of control
same,T/C,[2],111 % of control and 117 % of control
same,T/C,"dose: 4.0 mg/kg/injection, schedule: Q01DX005 (ip), vehicle: saline",106 % of control
same,T/C,"dose: 4.0 mg/kg/injection, schedule: Q01DX009 (ip), vehicle: saline",117 % of control
CN(Cc1cnc2nc(N)nc(N)c2n1)c1c(Cl)cc(C(=O)NC(CCC(=O)O)C(=O)O)cc1Cl (configuration not stated),T/C,"dose: 285.0 mg/kg/injection, schedule: Q01DX001 (ip), vehicle: carboxymethylcellulose (CMC)",91 % of control
same,T/C,"dose: 434.0 mg/kg/injection, schedule: Q01DX001 (ip), vehicle: carboxymethylcellulose (CMC)",90 % of control
same,T/C,"dose: 647.0 mg/kg/injection, schedule: Q01DX001 (ip), vehicle: carboxymethylcellulose (CMC)",95 % of control
NC(=O)N(CCCl)N=O,T/C,"dose: 1.2 mg/kg/injection, schedule: Q01DX001 (ip), vehicle: saline",115 % of control
same,T/C,"dose: 1.8 mg/kg/injection, schedule: Q01DX001 (ip), vehicle: saline",112 % of control
same,T/C,"dose: 3.6 mg/kg/injection, schedule: Q01DX001 (ip), vehicle: saline",163 % of control
same,T/C,"dose: 5.0 mg/kg/injection, schedule: Q01DX001 (ip), vehicle: carboxymethylcellulose (CMC)",176 % of control and 187 % of control
same,T/C,"dose: 7.2 mg/kg/injection, schedule: Q01DX001 (ip), vehicle: saline",159 % of control and 229 % of control
same,T/C,"dose: 7.5 mg/kg/injection, schedule: Q01DX001 (ip), vehicle: carboxymethylcellulose (CMC)",108 % of control
CN(N=O)C(=O)Nc1ccc(F)cc1,T/C,"dose: 75.0 mg/kg/injection, schedule: Q01DX001 (ip), vehicle: carboxymethylcellulose (CMC)",101 % of control
same,T/C,[4],103 % of control
COc1cccc(NC(=O)N(CCCl)N=O)c1,T/C,[3],115 % of control
same,T/C,"dose: 27.0 mg/kg/injection, schedule: Q01DX001 (ip), vehicle: carboxymethylcellulose (CMC)",115 % of control
same,T/C,"dose: 40.0 mg/kg/injection, schedule: Q01DX001 (ip), vehicle: carboxymethylcellulose (CMC)",121 % of control
same,T/C,"dose: 60.0 mg/kg/injection, schedule: Q01DX001 (ip), vehicle: carboxymethylcellulose (CMC)",97 % of control
CCOC(=O)C1CCC(NC(=O)N(CCCl)N=O)CC1 (configuration not stated),T/C,"dose: 4.0 mg/kg/injection, schedule: Q01DX001 (ip), vehicle: other",103 % of control and 113 % of control
same,T/C,"dose: 8.0 mg/kg/injection, schedule: Q01DX001 (ip), vehicle: other",110 % of control
same,T/C,"dose: 14.0 mg/kg/injection, schedule: Q01DX001 (ip), vehicle: other",118 % of control
same,T/C,"dose: 31.0 mg/kg/injection, schedule: Q01DX001 (ip), vehicle: other",179 % of control and 203 % of control
same,T/C,"dose: 33.0 mg/kg/injection, schedule: Q01DX001 (ip), vehicle: other",169 % of control and 203 % of control
same,T/C,"dose: 44.0 mg/kg/injection, schedule: Q01DX001 (ip), vehicle: other",225 % of control
same,T/C,"dose: 47.0 mg/kg/injection, schedule: Q01DX001 (ip), vehicle: other",203 % of control and 239 % of control
same,T/C,"dose: 66.0 mg/kg/injection, schedule: Q01DX001 (ip), vehicle: other",175 % of control and 303 % of control
same,T/C,"dose: 67.0 mg/kg/injection, schedule: Q01DX001 (ip), vehicle: other",155 % of control
same,T/C,"dose: 70.0 mg/kg/injection, schedule: Q01DX001 (ip), vehicle: other",151 % of control
